Data: publication PMC10004634 (PLOS ONE, 2023)
Read-outs that look alike come from different tables or passages of the source.

How the values were obtained:
Experiment in all cases: biochemical
Parameters in all cases: KINOMEscan scanMAX competition binding, DNA-tagged kinases, qPCR read-out, percent control at 300 nM
[1] = molecular target: T1, ABL1(H396P)-phosphorylated (Homo sapiens, UniProt P00519, H396P)
T1 construct: phosphorylated

[2] = molecular target: T2, ICK (Homo sapiens, UniProt Q9UPZ9)
T2 construct: gene CILK1
T2 sequence (Q9UPZ9 1-632): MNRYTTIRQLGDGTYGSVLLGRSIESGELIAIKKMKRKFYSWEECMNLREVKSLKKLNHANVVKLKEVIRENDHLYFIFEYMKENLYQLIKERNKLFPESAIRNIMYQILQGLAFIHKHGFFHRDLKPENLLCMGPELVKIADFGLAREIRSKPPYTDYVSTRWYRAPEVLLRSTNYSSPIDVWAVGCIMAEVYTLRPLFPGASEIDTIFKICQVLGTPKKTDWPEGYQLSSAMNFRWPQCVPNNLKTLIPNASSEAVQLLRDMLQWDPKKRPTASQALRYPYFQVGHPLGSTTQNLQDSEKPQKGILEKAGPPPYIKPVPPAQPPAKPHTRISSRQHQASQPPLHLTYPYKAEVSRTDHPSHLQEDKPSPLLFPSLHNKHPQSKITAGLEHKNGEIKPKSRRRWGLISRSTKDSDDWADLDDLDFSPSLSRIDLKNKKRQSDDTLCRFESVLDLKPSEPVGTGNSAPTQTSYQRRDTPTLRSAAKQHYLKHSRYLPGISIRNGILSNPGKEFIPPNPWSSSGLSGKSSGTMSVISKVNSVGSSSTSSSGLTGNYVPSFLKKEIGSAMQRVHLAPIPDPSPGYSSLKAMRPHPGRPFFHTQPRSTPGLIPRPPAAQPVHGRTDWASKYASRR

[3] = molecular target: INSR (Homo sapiens, UniProt P06213)
[4] = molecular target: RIPK2 (Homo sapiens, UniProt O43353)
[5] = molecular target: T3, ULK1 (Homo sapiens, UniProt O75385)
T3 sequence (O75385 1-1050): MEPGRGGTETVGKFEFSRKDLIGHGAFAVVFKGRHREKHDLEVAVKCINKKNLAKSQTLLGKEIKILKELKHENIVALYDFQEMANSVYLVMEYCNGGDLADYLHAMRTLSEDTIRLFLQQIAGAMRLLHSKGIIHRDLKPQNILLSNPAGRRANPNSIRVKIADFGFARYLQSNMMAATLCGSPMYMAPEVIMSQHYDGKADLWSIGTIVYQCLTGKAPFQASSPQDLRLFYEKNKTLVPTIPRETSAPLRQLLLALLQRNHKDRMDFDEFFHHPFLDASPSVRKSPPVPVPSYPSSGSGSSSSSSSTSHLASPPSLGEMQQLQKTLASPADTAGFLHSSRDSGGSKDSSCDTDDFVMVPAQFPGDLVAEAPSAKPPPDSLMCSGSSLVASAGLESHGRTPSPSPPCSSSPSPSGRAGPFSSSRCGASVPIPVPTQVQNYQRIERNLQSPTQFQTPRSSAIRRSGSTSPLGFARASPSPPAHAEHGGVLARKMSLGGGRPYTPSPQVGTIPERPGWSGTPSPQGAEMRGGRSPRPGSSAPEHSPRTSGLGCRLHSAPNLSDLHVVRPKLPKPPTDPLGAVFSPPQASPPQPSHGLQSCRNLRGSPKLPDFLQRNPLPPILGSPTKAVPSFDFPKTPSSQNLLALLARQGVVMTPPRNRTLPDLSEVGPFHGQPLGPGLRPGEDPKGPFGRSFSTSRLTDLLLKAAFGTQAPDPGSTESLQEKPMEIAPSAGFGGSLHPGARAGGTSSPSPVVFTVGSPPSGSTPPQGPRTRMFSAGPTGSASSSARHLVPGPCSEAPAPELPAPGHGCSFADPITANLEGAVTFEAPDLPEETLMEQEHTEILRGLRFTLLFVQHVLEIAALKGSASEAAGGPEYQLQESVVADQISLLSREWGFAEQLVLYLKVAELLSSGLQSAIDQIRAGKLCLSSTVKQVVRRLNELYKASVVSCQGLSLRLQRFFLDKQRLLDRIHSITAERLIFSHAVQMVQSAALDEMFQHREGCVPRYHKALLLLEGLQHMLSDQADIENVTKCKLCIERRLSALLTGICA

[6] = molecular target: T4, YANK2 (Homo sapiens, UniProt Q9NY57)
T4 construct: gene STK32B

[7] = molecular target: T5, AURKA (Homo sapiens, UniProt O14965)
T5 sequence (O14965 1-403): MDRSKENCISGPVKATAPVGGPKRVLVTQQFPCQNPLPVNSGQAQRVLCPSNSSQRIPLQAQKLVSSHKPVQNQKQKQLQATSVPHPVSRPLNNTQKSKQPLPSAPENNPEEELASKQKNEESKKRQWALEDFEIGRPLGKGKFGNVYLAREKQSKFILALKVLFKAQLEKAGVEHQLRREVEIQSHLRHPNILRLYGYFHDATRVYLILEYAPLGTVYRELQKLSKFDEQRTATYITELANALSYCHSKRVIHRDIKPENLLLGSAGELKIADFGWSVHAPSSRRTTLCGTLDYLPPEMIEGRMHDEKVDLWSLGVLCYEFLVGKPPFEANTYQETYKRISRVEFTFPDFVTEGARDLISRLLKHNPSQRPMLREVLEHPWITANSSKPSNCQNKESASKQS

[8] = molecular target: LIMK1 (Homo sapiens, UniProt P53667)
[9] = molecular target: RET(V804M) (Homo sapiens, UniProt P07949, V804M)
[10] = read-out: Percent control / Tirabrutinib
[11] = read-out: Percent control / Ibrutinib
[12] = read-out: Percent control / Zanubrutinib
[13] = read-out: Percent control / Acalabrutinib

T4 sequence (Q9NY57 whole entry): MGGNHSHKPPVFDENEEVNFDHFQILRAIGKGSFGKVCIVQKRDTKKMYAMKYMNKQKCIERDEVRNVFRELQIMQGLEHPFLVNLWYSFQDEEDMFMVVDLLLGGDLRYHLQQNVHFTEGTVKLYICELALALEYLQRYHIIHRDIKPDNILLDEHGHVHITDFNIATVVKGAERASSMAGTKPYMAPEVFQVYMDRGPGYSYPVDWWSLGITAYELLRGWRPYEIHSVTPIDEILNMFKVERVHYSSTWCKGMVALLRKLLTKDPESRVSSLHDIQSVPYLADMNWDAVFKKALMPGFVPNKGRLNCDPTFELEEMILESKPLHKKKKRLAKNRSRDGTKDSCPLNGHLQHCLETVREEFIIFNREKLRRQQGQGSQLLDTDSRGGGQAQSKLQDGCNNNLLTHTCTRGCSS
RET(V804M), sequence (P07949 whole entry V804M): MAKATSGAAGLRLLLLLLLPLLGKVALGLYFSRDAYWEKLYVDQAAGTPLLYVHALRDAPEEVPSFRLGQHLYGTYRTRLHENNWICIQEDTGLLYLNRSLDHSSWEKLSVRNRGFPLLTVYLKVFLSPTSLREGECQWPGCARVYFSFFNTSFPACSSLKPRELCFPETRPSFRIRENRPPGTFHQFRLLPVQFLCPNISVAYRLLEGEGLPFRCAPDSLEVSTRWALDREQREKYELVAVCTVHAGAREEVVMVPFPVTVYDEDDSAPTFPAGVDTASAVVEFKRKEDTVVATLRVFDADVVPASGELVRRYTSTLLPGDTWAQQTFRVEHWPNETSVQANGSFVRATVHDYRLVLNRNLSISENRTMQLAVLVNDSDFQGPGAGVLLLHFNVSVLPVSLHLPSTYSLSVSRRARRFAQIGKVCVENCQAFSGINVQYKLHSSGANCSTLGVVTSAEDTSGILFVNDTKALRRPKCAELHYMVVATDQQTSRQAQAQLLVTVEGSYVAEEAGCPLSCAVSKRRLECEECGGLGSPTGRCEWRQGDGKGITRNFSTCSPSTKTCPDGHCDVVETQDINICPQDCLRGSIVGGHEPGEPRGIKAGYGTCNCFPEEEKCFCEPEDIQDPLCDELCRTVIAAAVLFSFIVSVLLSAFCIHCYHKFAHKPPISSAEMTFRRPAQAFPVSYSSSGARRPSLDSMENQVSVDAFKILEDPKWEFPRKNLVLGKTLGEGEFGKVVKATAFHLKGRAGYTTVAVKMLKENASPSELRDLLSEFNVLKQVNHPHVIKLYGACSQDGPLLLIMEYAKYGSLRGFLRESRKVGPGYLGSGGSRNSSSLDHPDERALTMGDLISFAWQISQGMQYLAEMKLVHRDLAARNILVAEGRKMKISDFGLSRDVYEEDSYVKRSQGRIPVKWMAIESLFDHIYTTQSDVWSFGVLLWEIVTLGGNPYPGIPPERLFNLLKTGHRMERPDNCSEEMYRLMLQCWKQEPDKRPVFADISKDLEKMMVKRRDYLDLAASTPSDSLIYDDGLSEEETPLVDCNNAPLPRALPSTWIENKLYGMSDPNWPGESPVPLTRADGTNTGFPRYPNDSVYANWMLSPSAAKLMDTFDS
INSR, sequence (P06213 whole entry): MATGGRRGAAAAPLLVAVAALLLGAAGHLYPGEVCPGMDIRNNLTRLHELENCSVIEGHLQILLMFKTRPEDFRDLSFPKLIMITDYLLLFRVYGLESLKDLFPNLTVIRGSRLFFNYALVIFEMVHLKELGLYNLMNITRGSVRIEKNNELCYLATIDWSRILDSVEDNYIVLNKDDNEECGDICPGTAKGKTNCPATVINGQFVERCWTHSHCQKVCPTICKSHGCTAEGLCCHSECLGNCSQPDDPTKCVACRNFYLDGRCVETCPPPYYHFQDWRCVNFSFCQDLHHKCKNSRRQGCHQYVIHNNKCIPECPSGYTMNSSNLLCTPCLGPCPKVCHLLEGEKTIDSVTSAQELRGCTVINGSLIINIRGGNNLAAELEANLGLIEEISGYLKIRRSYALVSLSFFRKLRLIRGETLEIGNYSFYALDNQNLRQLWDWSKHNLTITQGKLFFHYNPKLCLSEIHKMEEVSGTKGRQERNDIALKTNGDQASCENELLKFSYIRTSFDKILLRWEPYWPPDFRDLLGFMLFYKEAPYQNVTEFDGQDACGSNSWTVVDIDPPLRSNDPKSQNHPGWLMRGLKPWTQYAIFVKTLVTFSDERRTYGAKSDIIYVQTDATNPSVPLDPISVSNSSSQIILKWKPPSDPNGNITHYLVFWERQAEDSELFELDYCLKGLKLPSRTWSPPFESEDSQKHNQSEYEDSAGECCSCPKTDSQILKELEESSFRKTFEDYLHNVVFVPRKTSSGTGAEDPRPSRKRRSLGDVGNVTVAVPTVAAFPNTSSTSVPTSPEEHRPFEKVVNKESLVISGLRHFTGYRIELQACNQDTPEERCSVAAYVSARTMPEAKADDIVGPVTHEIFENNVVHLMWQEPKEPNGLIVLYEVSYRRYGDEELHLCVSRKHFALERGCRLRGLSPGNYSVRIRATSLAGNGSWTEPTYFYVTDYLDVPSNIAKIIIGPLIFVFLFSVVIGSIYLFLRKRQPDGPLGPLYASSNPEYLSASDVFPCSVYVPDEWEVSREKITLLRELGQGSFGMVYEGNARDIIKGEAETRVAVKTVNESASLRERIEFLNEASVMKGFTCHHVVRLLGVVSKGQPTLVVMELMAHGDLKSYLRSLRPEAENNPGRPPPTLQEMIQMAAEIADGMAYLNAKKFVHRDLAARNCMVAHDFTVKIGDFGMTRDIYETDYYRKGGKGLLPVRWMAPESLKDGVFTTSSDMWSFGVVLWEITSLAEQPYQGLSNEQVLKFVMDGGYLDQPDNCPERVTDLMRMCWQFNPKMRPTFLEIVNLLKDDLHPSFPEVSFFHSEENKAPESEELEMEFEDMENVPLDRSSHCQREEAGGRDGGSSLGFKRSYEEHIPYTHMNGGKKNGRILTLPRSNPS
RIPK2, sequence (O43353 whole entry): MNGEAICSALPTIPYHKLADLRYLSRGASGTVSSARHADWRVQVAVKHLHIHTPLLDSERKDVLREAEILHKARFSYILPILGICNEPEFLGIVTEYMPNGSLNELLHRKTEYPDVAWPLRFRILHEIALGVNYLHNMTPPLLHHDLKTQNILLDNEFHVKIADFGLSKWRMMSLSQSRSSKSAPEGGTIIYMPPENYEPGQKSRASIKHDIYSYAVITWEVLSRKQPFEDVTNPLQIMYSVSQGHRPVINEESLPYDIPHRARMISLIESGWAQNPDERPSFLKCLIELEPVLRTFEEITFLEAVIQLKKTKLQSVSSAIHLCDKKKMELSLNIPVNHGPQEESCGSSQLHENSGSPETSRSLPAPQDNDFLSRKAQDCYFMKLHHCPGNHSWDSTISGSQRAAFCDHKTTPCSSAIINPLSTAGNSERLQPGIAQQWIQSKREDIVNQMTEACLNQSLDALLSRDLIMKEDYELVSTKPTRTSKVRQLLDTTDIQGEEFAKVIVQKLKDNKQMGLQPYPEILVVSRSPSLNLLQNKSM
LIMK1, sequence (P53667 whole entry): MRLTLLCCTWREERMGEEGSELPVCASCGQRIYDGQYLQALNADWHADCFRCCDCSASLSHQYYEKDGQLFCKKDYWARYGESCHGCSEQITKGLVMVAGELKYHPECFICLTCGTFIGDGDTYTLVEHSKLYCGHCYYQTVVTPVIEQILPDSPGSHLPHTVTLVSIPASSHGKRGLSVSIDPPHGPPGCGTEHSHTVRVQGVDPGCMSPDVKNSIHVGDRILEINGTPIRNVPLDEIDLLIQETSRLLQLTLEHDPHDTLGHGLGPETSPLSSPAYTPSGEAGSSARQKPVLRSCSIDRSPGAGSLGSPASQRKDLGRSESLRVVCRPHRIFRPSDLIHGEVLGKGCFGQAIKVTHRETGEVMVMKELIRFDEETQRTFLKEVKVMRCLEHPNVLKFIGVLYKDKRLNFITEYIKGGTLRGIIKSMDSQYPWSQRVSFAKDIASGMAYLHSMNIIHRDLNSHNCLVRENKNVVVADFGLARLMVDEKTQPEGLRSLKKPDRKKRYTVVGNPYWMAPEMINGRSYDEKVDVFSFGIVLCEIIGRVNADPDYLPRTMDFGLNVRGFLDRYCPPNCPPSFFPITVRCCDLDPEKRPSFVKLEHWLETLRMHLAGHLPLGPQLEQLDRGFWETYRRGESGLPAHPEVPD

CC#CC(=O)N1CC[C@@H](n2c(=O)n(-c3ccc(Oc4ccccc4)cc3)c3c(N)ncnc32)C1 [Tirabrutinib]
remaining binding at 0.3 µM [1, 10]: 92% | remaining binding at 0.3 µM [2, 10]: 60% | remaining binding at 0.3 µM [3, 10]: 72% | remaining binding at 0.3 µM [4, 10]: 33% | remaining binding at 0.3 µM [5, 10]: 74% | remaining binding at 0.3 µM [6, 10]: 87%

C=CC(=O)N1CCC[C@@H](n2nc(-c3ccc(Oc4ccccc4)cc3)c3c(N)ncnc32)C1 [Ibrutinib]
remaining binding at 0.3 µM [7, 11]: 94% | remaining binding at 0.3 µM [2, 11]: 61% | remaining binding at 0.3 µM [3, 11]: 92% | remaining binding at 0.3 µM [8, 11]: 57% | remaining binding at 0.3 µM [9, 11]: 94% | remaining binding at 0.3 µM [4, 11]: 6.4% | remaining binding at 0.3 µM [5, 11]: 85% | remaining binding at 0.3 µM [6, 11]: 76%

C=CC(=O)N1CCC([C@@H]2CCNc3c(C(N)=O)c(-c4ccc(Oc5ccccc5)cc4)nn32)CC1 [Zanubrutinib]
remaining binding at 0.3 µM [1, 12]: 72% | remaining binding at 0.3 µM [7, 12]: 92% | remaining binding at 0.3 µM [3, 12]: 100% | remaining binding at 0.3 µM [8, 12]: 100% | remaining binding at 0.3 µM [9, 12]: 94% | remaining binding at 0.3 µM [5, 12]: 100% | remaining binding at 0.3 µM [6, 12]: 96%

CC#CC(=O)N1CCC[C@H]1c1nc(-c2ccc(C(=O)Nc3ccccn3)cc2)c2c(N)nccn12 [Acalabrutinib]
remaining binding at 0.3 µM [1, 13]: 95% | remaining binding at 0.3 µM [7, 13]: 96% | remaining binding at 0.3 µM [2, 13]: 82% | remaining binding at 0.3 µM [3, 13]: 93% | remaining binding at 0.3 µM [8, 13]: 47% | remaining binding at 0.3 µM [9, 13]: 85% | remaining binding at 0.3 µM [4, 13]: 79% | remaining binding at 0.3 µM [5, 13]: 95% | remaining binding at 0.3 µM [6, 13]: 89%
